Results as given in PubChem BioAssay (NCI).
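All cell lines were grown in 96-well plates and treated with compound for 48 hours. Definition used: TGI = concentration required for complete inhibition of growth.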

How the values were obtained:
Experiment in all cases: DTP human tumour cell line panel, 48 h
[1] = system: COLO 205 colon
[2] = system: HOP-92 NSCLC
[3] = system: HS 578T breast
[4] = system: SNB-75 CNS
[5] = system: BT-549 breast
[6] = system: PC-3 prostate
[7] = system: SW-620 colon
[8] = system: TK-10 renal
[9] = system: KM12 colon
[10] = system: CCRF-CEM leukemia
[11] = system: NCI-H23 lung
[12] = system: UACC-62 melanoma
[13] = system: OVCAR-5 ovarian
[14] = system: SF-268 CNS
[15] = system: OVCAR-8 ovarian
[16] = system: MDA-MB-231 breast
[17] = system: DU-145 prostate
[18] = system: HCT-116 colon
[19] = system: SK-OV-3 ovarian
[20] = system: HCC-2998 colon
[21] = system: IGROV1 ovarian
[22] = system: SK-MEL-2 melanoma
[23] = system: SF-295 CNS
[24] = system: M14 melanoma
[25] = system: NCI-H522 lung
[26] = system: UO-31 renal
[27] = system: SN12C renal
[28] = system: MOLT-4 leukemia
[29] = system: SNB-19 CNS
[30] = system: RPMI-8226 leukemia
[31] = system: MCF7 breast
[32] = system: RXF 393 renal
[33] = system: A549 NSCLC
[34] = system: UACC-257 melanoma
[35] = system: NCI-H226 lung
[36] = system: U251 CNS
[37] = system: A498 renal
[38] = system: NCI/ADR-RES ovarian
[39] = system: HL-60(TB) leukemia
[40] = system: 786-0 renal
[41] = system: SK-MEL-5 melanoma
[42] = system: MALME-3M melanoma
[43] = system: HCT-15 colon
[44] = system: NCI-H460 lung
[45] = system: T-47D breast
[46] = system: HOP-62 NSCLC
[47] = system: SK-MEL-28 melanoma
[48] = system: HT29 colon
[49] = system: OVCAR-3 ovarian
[50] = system: CAKI-1 renal
[51] = system: MDA-N
[52] = system: ACHN renal
[53] = system: MDA-MB-435
[54] = system: OVCAR-4 ovarian
[55] = system: EKVX NSCLC
[56] = system: SR leukemia
[57] = system: K-562 leukemia
[58] = system: LOX IMVI melanoma
[59] = system: SF-539 CNS

SMILES: CN(C)c1ccc(/C=C2\N=C(N/N=C/c3ccccc3)NC2=O)cc1
- TGI [1]: > 100 µM
- TGI [2]: 79.1 µM
- TGI [3]: > 100 µM
- TGI [4]: > 100 µM
- TGI [5]: > 100 µM
- TGI [6]: > 100 µM
- TGI [7]: > 100 µM
- TGI [8]: > 100 µM
- TGI [9]: > 100 µM
- TGI [10]: > 100 µM
- TGI [11]: > 100 µM
- TGI [12]: > 100 µM
- TGI [13]: > 100 µM
- TGI [14]: > 100 µM
- TGI [15]: 72.8 µM
- TGI [16]: > 100 µM
- TGI [17]: > 100 µM
- TGI [18]: > 100 µM
- TGI [19]: > 100 µM
- TGI [20]: > 100 µM
- TGI [21]: > 100 µM
- TGI [22]: > 100 µM
- TGI [23]: > 100 µM
- TGI [24]: > 100 µM
- TGI [25]: > 100 µM
- TGI [26]: > 100 µM
- TGI [27]: > 100 µM
- TGI [28]: > 100 µM
- TGI [29]: > 100 µM
- TGI [30]: > 100 µM
- TGI [31]: > 100 µM
- TGI [32]: 70.4 µM
- TGI [33]: > 100 µM
- TGI [34]: > 100 µM
- TGI [35]: > 100 µM
- TGI [36]: > 100 µM
- TGI [37]: > 100 µM
- TGI [38]: > 100 µM
- TGI [39]: > 100 µM
- TGI [40]: > 100 µM
- TGI [41]: > 100 µM
- TGI [42]: > 100 µM
- TGI [43]: > 100 µM
- TGI [44]: > 100 µM
- TGI [45]: > 100 µM
- TGI [46]: > 100 µM
- TGI [47]: > 100 µM
- TGI [48]: > 100 µM
- TGI [49]: > 100 µM
- TGI [50]: > 100 µM
- TGI [51]: > 100 µM
- TGI [52]: > 100 µM
- TGI [53]: > 100 µM
- TGI [54]: > 100 µM
- TGI [55]: > 100 µM

SMILES: COc1ccc(OC)c(NC(=O)C(=O)Nn2c(=S)[nH]c3ccccc3c2=O)c1
- TGI [2]: > 100 µM
- TGI [3]: > 100 µM
- TGI [4]: > 100 µM
- TGI [56]: > 100 µM
- TGI [5]: > 100 µM
- TGI [6]: > 100 µM
- TGI [7]: > 100 µM
- TGI [8]: > 100 µM
- TGI [9]: > 100 µM
- TGI [10]: > 100 µM
- TGI [11]: > 100 µM
- TGI [12]: > 100 µM
- TGI [13]: > 100 µM
- TGI [14]: > 100 µM
- TGI [15]: > 100 µM
- TGI [16]: > 100 µM
- TGI [18]: > 100 µM
- TGI [19]: > 100 µM
- TGI [20]: > 100 µM
- TGI [21]: > 100 µM
- TGI [22]: > 100 µM
- TGI [57]: > 100 µM
- TGI [23]: > 100 µM
- TGI [24]: > 100 µM
- TGI [25]: > 100 µM
- TGI [26]: > 100 µM
- TGI [27]: > 100 µM
- TGI [28]: > 100 µM
- TGI [29]: > 100 µM
- TGI [30]: > 100 µM
- TGI [31]: > 100 µM
- TGI [32]: > 100 µM
- TGI [33]: > 100 µM
- TGI [34]: > 100 µM
- TGI [35]: > 100 µM
- TGI [36]: > 100 µM
- TGI [37]: > 100 µM
- TGI [38]: > 100 µM
- TGI [39]: > 100 µM
- TGI [58]: > 100 µM
- TGI [40]: > 100 µM
- TGI [41]: > 100 µM
- TGI [42]: > 100 µM
- TGI [43]: > 100 µM
- TGI [44]: > 100 µM
- TGI [45]: > 100 µM
- TGI [46]: > 100 µM
- TGI [47]: > 100 µM
- TGI [48]: > 100 µM
- TGI [49]: > 100 µM
- TGI [50]: > 100 µM
- TGI [51]: > 100 µM
- TGI [59]: > 100 µM
- TGI [52]: > 100 µM
- TGI [53]: > 100 µM
- TGI [54]: > 100 µM
- TGI [55]: > 100 µM

SMILES: COC(=O)C(/C(=N/N)C(=O)Nc1cc(Cl)c(Cl)cc1Cl)c1nc2ccc(Cl)cc2[nH]c1=O (stereo not given)
- TGI [2]: > 100 µM
- TGI [3]: > 100 µM
- TGI [4]: > 100 µM
- TGI [56]: > 100 µM
- TGI [5]: > 100 µM
- TGI [6]: > 100 µM
- TGI [7]: > 100 µM
- TGI [8]: > 100 µM
- TGI [9]: > 100 µM
- TGI [11]: > 100 µM
- TGI [12]: > 100 µM
- TGI [13]: > 100 µM
- TGI [14]: > 100 µM
- TGI [15]: > 100 µM
- TGI [16]: > 100 µM
- TGI [18]: > 100 µM
- TGI [19]: > 100 µM
- TGI [21]: > 100 µM
- TGI [22]: > 100 µM
- TGI [57]: > 100 µM
- TGI [23]: > 100 µM
- TGI [24]: > 100 µM
- TGI [25]: > 100 µM
- TGI [26]: > 100 µM
- TGI [27]: > 100 µM
- TGI [30]: > 100 µM
- TGI [31]: > 100 µM
- TGI [32]: > 100 µM
- TGI [33]: > 100 µM
- TGI [34]: > 100 µM
- TGI [35]: > 100 µM
- TGI [36]: > 100 µM
- TGI [37]: > 100 µM
- TGI [38]: > 100 µM
- TGI [39]: > 100 µM
- TGI [58]: > 100 µM
- TGI [40]: > 100 µM
- TGI [41]: > 100 µM
- TGI [42]: > 100 µM
- TGI [43]: > 100 µM
- TGI [44]: > 100 µM
- TGI [45]: > 100 µM
- TGI [46]: > 100 µM
- TGI [47]: > 100 µM
- TGI [48]: > 100 µM
- TGI [49]: > 100 µM
- TGI [50]: > 100 µM
- TGI [51]: > 100 µM
- TGI [59]: > 100 µM
- TGI [52]: > 100 µM
- TGI [53]: > 100 µM
- TGI [54]: > 100 µM
- TGI [55]: > 100 µM

SMILES: CCN(CC)Cc1ccc2cccnc2c1O
- TGI [1]: 42 µM
- TGI [2]: > 100 µM
- TGI [3]: > 100 µM
- TGI [4]: 12.7 µM
- TGI [56]: > 100 µM
- TGI [5]: > 100 µM
- TGI [6]: > 100 µM
- TGI [7]: > 100 µM
- TGI [8]: 33.1 µM
- TGI [10]: 13.3 µM
- TGI [11]: > 100 µM
- TGI [12]: > 100 µM
- TGI [13]: 45.5 µM
- TGI [14]: > 100 µM
- TGI [15]: 7.01 µM
- TGI [16]: > 100 µM
- TGI [17]: > 100 µM
- TGI [18]: 41.8 µM
- TGI [19]: 25.1 µM
- TGI [20]: 59.7 µM
- TGI [21]: 18.4 µM
- TGI [22]: 80.1 µM
- TGI [57]: > 100 µM
- TGI [23]: 51.2 µM
- TGI [25]: 3.28 µM
- TGI [26]: > 100 µM
- TGI [27]: 47.2 µM
- TGI [28]: 10 µM
- TGI [29]: > 100 µM
- TGI [30]: 23.7 µM
- TGI [31]: > 100 µM
- TGI [32]: > 100 µM
- TGI [33]: 32.9 µM
- TGI [34]: > 100 µM
- TGI [35]: > 100 µM
- TGI [36]: > 100 µM
- TGI [37]: 33.5 µM
- TGI [38]: 2.1 µM
- TGI [39]: 75 µM
- TGI [58]: > 100 µM
- TGI [41]: > 100 µM
- TGI [42]: > 100 µM
- TGI [43]: 18.5 µM
- TGI [44]: 19.8 µM
- TGI [46]: 65.4 µM
- TGI [47]: > 100 µM
- TGI [48]: 12.8 µM
- TGI [49]: 11.4 µM
- TGI [50]: > 100 µM
- TGI [51]: 49.7 µM
- TGI [59]: 20.7 µM
- TGI [52]: > 100 µM
- TGI [53]: > 100 µM
- TGI [54]: > 100 µM
- TGI [55]: > 100 µM
